Results published in patent US8802597B2, “Herbicidal pyrimidines” (E I du Pont de Nemours and Company, priority 2003, dated 2014).

Experiments:
Experiment in all cases: Test D pre/postemergence
Format in all cases: in vivo
Conditions in all cases: scale 0 to 100 (100 = complete control)
[1] = test system: Russian thistle (Salsola kali)
Text: (§1) Seeds of plant species selected from catchweed bedstraw (galium; Galium aparine), common chickweed (Stellaria media), kochia (Kochia scoparia), lambsquarters (Chenopodium album), pigweed (Amaranthus retroflexus), Russian thistle (Salsola kali), wild buckwheat (Polygonum convolvulus), wild mustard (Sinapis arvensis), winter barley (Hordeum vulgare), and wheat (Triticum aestivum) were planted and treated preemergence with test chemicals formulated in a non-phytotoxic solvent mixture which included a surfactant.
(§2) At the same time, plants selected from these crop and weed species were treated with postemergence applications of some of the test chemicals formulated in the same manner. Plants ranged in height from 2 to 18 cm (1- to 4-leaf stage) for postemergence treatments. Treated plants and controls were maintained in a controlled growth environment for 15 to 25 days after which time all species were compared to controls and visually evaluated. Plant response ratings, summarized in Table D, are based on a scale of 0 to 100 where 0 is no effect and 100 is complete control. A dash (-) response means no test result.

[2] = test system: catchweed bedstraw (galium; Galium aparine)
Text: as §1, §2

[3] = test system: common chickweed (Stellaria media)
Text: as §1, §2

[4] = test system: kochia (Kochia scoparia)
Text: as §1, §2

[5] = test system: lambsquarters (Chenopodium album)
Text: as §1, §2

[6] = test system: pigweed (Amaranthus retroflexus)
Text: as §1, §2

[7] = test system: wheat (Triticum aestivum)
Text: as §1, §2

[8] = test system: wild buckwheat (Polygonum convolvulus)
Text: as §1, §2

[9] = test system: wild mustard (Sinapis arvensis)
Text: as §1, §2

Question: What does the source list for COC(=O)c1nc(C2CC2)nc(NO)c1Br [Compound 35]?
Answer: Plant response rating, Russian Thistle ([1]; Postemergence, 62 g ai/ha): 100; Plant response rating, Russian Thistle ([1]; Postemergence, 125 g ai/ha): 100; Plant response rating, Russian Thistle ([1]; Postemergence, 250 g ai/ha): 100; Plant response rating, Russian Thistle ([1]; Preemergence, 62 g ai/ha): 85; Plant response rating, Russian Thistle ([1]; Preemergence, 125 g ai/ha): 100; Plant response rating, Russian Thistle ([1]; Preemergence, 250 g ai/ha): 100; Plant response rating, Galium ([2]; Postemergence, 62 g ai/ha): 100; Plant response rating, Galium ([2]; Postemergence, 125 g ai/ha): 100; Plant response rating, Galium ([2]; Postemergence, 250 g ai/ha): 100; Plant response rating, Galium ([2]; Preemergence, 62 g ai/ha): 85; Plant response rating, Galium ([2]; Preemergence, 125 g ai/ha): 100; Plant response rating, Galium ([2]; Preemergence, 250 g ai/ha): 100; Plant response rating, Chickweed ([3]; Postemergence, 62 g ai/ha): 80; Plant response rating, Chickweed ([3]; Postemergence, 125 g ai/ha): 80; Plant response rating, Chickweed ([3]; Postemergence, 250 g ai/ha): 85; Plant response rating, Chickweed ([3]; Preemergence, 62 g ai/ha): 60; Plant response rating, Chickweed ([3]; Preemergence, 125 g ai/ha): 100; Plant response rating, Chickweed ([3]; Preemergence, 250 g ai/ha): 100; Plant response rating, Kochia ([4]; Postemergence, 62 g ai/ha): 80; Plant response rating, Kochia ([4]; Postemergence, 125 g ai/ha): 85; Plant response rating, Kochia ([4]; Postemergence, 250 g ai/ha): 85; Plant response rating, Kochia ([4]; Preemergence, 62 g ai/ha): 75; Plant response rating, Kochia ([4]; Preemergence, 125 g ai/ha): 100; Plant response rating, Kochia ([4]; Preemergence, 250 g ai/ha): 100; Plant response rating, Lambsquarters ([5]; Postemergence, 62 g ai/ha): 100; Plant response rating, Lambsquarters ([5]; Postemergence, 125 g ai/ha): 100; Plant response rating, Lambsquarters ([5]; Postemergence, 250 g ai/ha): 100; Plant response rating, Lambsquarters ([5]; Preemergence, 62 g ai/ha): 65; Plant response rating, Lambsquarters ([5]; Preemergence, 125 g ai/ha): 75; Plant response rating, Lambsquarters ([5]; Preemergence, 250 g ai/ha): 80; Plant response rating, Pigweed ([6]; Postemergence, 62 g ai/ha): 100; Plant response rating, Pigweed ([6]; Postemergence, 125 g ai/ha): 100; Plant response rating, Pigweed ([6]; Postemergence, 250 g ai/ha): 100; Plant response rating, Pigweed ([6]; Preemergence, 62 g ai/ha): 65; Plant response rating, Pigweed ([6]; Preemergence, 125 g ai/ha): 80; Plant response rating, Pigweed ([6]; Preemergence, 250 g ai/ha): 85; Plant response rating, Wheat ([7]; Postemergence, 62 g ai/ha): 0; Plant response rating, Wheat ([7]; Postemergence, 125 g ai/ha): 65; Plant response rating, Wheat ([7]; Postemergence, 250 g ai/ha): 70; Plant response rating, Wheat ([7]; Preemergence, 62 g ai/ha): 35; Plant response rating, Wheat ([7]; Preemergence, 125 g ai/ha): 40; Plant response rating, Wheat ([7]; Preemergence, 250 g ai/ha): 50; Plant response rating, Buckwheat, Wild ([8]; Postemergence, 62 g ai/ha): 60; Plant response rating, Buckwheat, Wild ([8]; Postemergence, 125 g ai/ha): 70; Plant response rating, Buckwheat, Wild ([8]; Postemergence, 250 g ai/ha): 80; Plant response rating, Buckwheat, Wild ([8]; Preemergence, 62 g ai/ha): 55; Plant response rating, Buckwheat, Wild ([8]; Preemergence, 125 g ai/ha): 60; Plant response rating, Buckwheat, Wild ([8]; Preemergence, 250 g ai/ha): 65; Plant response rating, Mustard, Wild ([9]; Postemergence, 62 g ai/ha): 75; Plant response rating, Mustard, Wild ([9]; Postemergence, 125 g ai/ha): 75; Plant response rating, Mustard, Wild ([9]; Postemergence, 250 g ai/ha): 75; Plant response rating, Mustard, Wild ([9]; Preemergence, 62 g ai/ha): 65; Plant response rating, Mustard, Wild ([9]; Preemergence, 125 g ai/ha): 70; Plant response rating, Mustard, Wild ([9]; Preemergence, 250 g ai/ha): 75
